Data taken from patent US11603380B2 (Centre national de la recherche scientifique, priority 2018, dated 2023).

Each compound was assayed on varicella-zoster virus (VZV) TK− (07/1) (assay: microbe, parasite or virus in culture). Settings: read-out: EC50 VZV TK− (07/1).
Type: cell-based

Compound	EC50 [µM]
[(E/Z)-2-[[2-[bis(tert-butoxycarbonyl)amino]-6-methoxy-pyrimidin-4-yl]oxymethyl]-4-[3-hexadecoxypropoxy(isopropoxycarbonyloxymethoxy)phosphoryl]but-2′-enyl]acetate [Compound (7)]	> 20
CCCCCCCCCCCCCCCCOCCCOP(=O)(C/C=C/COc1cc(N)nc(N)n1)OCOC(=O)OC(C)C (stereo not drawn) [Compound (2), [[(E)-4-(2,6-diaminopyrimidin-4-yl)oxybut-2′-enyl]-(3-hexadecoxypropoxy)phosphoryl]oxymethyl isopropyl carbonate]	0.24
CCCCCCCCCCCCCCCCOCCCOP(=O)(CC=C(COC(C)=O)COc1cc(Cl)nc(N)n1)OCOC(=O)OC(C)C (mixture of isomers) [Compound (8), [(E/Z)-2′-[(2-amino-6-chloro-pyrimidin-4-yl)oxymethyl]-4-[3-hexadecoxypropoxy(isopropoxycarbonyloxymethoxy)phosphoryl]but-2′-enyl]acetate]	> 20
